The record followed here is US9271503B2, “Control of insect pests” (priority 2011, dated 2016).

The data set has as its system B. tabaci b-biotype adults and nymphs. The data set can be described thus: Field trial on silverleaf whitefly against conventional insecticide (Example 21). Type of data set: in vivo, Bemisia tabaci. The following applies: formulations 2.0 L/ha, Diafenthiuron 0.80 L/ha. The protocol:
The trial was conducted in an irrigated conventional cotton crops in a cotton farm. […] Each replicated plot measured 24 m wide 100 m long.
Foliar applications of each treatment were made over two weeks. Pre-treatment counts were made visually of B. tabaci adults and nymphs, on the under-surface of leaves of cotton plants in each treatment. […] Data of both adults and nymphs were expressed as numbers per leaf for each treatment.
Treatment and sample dates were the independent variables.

Structures are written as SMILES.

`CC(C)c1cc(Oc2ccccc2)cc(C(C)C)c1NC(=S)NC(C)(C)C` [Diafenthiuron]: the “Bemisia tabaci adults per leaf, 3 DAT” value came to 15.33 ± 1.45 a per leaf; the “Bemisia tabaci adults per leaf, 7 DAT” value stood at 20.33 ± 2.40 ab per leaf; the “Bemisia tabaci adults per leaf, 14 DAT” value was 12.00 ± 0.88 a per leaf; the “Bemisia tabaci nymphs per leaf, 3 DAT” value is 28.67 ± 7.22 b per leaf. In addition, the “Bemisia tabaci nymphs per leaf, 7 DAT” value worked out at 15.33 ± 2.40 a per leaf and the “Bemisia tabaci nymphs per leaf, 14 DAT” value is on record as 17.00 ± 1.73 b per leaf. Also, under “relative to the control”, the “Bemisia tabaci adults, 3 DAT (% mortality)” value is given as “(54.7%)”; the “Bemisia tabaci adults, 7 DAT (% mortality)” value is recorded as “(32.2%)”; the “Bemisia tabaci adults, 14 DAT (% mortality)” value is listed as “(34.5%)”; the “Bemisia tabaci nymphs, 7 DAT (% mortality)” value is “(22.1%)”. For the same compound, the “Bemisia tabaci nymphs, 14 DAT (% mortality)” value (relative to the control) was “(60.6%)”. The “Bemisia tabaci adults, 3 DAT (% mortality)” value (relative to the control, listed as conventional insecticide) is given as 38.7%.
